# Where a SMILES comes first, the peptide text is derived from it. The star is where a group is joined. Cbz = O=C(OCc1ccccc1)*
# Test system: WERI-Rb-1 cells
# Experiment: Cell uptake analysis by flow cytometry (FITC-labelled)
# Type: cell-based
# Settings: pH 6.5; 3 mM Amiloride, 2 μM cytochalasin D
row,SMILES,Effect of preincubation on Nano-FITCMG@PSI internalization
1,N=C(N)NC(=O)c1nc(Cl)c(N)nc1N [Amiloride],suppressed
2,C=C1[C@@H](C)[C@H]2[C@H](Cc3ccccc3)NC(=O)[C@]23[C@H](OC(C)=O)/C=C/[C@@](C)(O)C(=O)[C@@H](C)C/C=C/[C@H]3[C@@H]1O [cytochalasin D],suppressed

# Target: T1, MDMX (Homo sapiens, UniProt O15151)
# T1 construct: endogenous in cells; host or cells: WERI-Rb-1 (ATCC)
# T1 sequence (O15151 1-490): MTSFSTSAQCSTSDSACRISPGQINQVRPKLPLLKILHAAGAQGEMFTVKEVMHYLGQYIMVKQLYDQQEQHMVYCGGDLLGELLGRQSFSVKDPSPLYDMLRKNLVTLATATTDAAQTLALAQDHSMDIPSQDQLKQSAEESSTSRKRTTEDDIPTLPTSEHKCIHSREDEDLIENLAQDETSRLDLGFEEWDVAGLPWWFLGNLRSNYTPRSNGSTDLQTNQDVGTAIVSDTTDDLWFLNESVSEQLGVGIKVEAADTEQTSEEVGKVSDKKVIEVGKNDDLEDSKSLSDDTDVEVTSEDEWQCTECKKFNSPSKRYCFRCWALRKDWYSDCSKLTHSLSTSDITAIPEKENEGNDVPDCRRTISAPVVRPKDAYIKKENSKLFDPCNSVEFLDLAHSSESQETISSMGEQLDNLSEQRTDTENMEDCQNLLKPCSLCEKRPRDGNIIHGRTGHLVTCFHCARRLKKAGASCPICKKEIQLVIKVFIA
# Experiment: MDMX degradation by western blot
# Type: cell-based
# Settings: 200 nM Nano-MP@PSI, 12-hour preincubation of inhibitor
# Description: The protein fraction of cell lysates was resolved by 10%SDS/PAGE before membrane
# transfer. Primary antibodies were from Santa Cruz Biotechnology (p53), Abcam (p73), Proteintech
# (MDMX，p21, GAPDH); secondary antibodies conjugated with horseradish peroxidase were from […]
row,SMILES,Effect on MDMX degradation by Nano-MP@PSI
1,CCOC(=O)c1ccc(N2NC(=O)/C(=C/c3ccc([N+](=O)[O-])o3)C2=O)cc1 [PYR41],totally inhibits
2,CC(C)C[C@@H](C=O)NC(=O)[C@H](CC(C)C)NC(=O)[C@H](CC(C)C)NC(=O)OCc1ccccc1 [MG132] (Cbz-Leu-Leu-Leu-aldehyde),totally inhibits
3,CCN(CC)CCCC(C)Nc1ccnc2cc(Cl)ccc12 (stereo not drawn) [chloroquine],neither a chloroquine (a lysosome inhibitor) nor NH4Cl (an autophagy inhibitor) had any effect
4,Cl.N [NH4Cl],neither a chloroquine (a lysosome inhibitor) nor NH4Cl (an autophagy inhibitor) had any effect

# Source: publication PMC8171083, “A nano-predator of pathological MDMX construct by clearable supramolecular gold(I)-thiol-peptide complexes achieves safe and potent anti-tumor activity” (Theranostics, 2021)
